Data on 15 compounds can be found in ChEMBL document CHEMBL3867489, “Design, synthesis, antibacterial activity and docking study of some new trimethoprim derivatives” (2016).

Structures are written as SMILES. ≈ marks a conversion by molar mass, not a printed value.

One assay deals with Escherichia coli. Briefly: Antibacterial activity against Escherichia coli by agar well diffusion method. Format: functional. In general terms: A growth-free zone around the sample is the usual read-out of agar diffusion tests.
The test system of the next assay is Staphylococcus aureus. The assay can be described thus: Antibacterial activity against Staphylococcus aureus by agar well diffusion method. The assay is classed as functional.

For orientation: MIC means the lowest concentration that inhibits growth of the organism. The low end stands for greater potency, the high end for weaker potency. For `COc1cc(Cc2cnc(N)nc2/N=C/c2ccc(Cl)cc2)cc(OC)c1O`, the minimal inhibitory concentration (MIC) against Escherichia coli and in the assay on Staphylococcus aureus was 535 µM (≈ 214 µg/mL) each time.

`COc1ccc(COc2c(OC)cc(Cc3cnc(N)nc3N)cc2OC)cc1`: the figures for the MIC with Escherichia coli and against Staphylococcus aureus were 4 µM (≈ 1.59 µg/mL) and 5 µM (≈ 1.98 µg/mL), respectively.

As to `COc1cc(Cc2cnc(N)nc2/N=C/c2ccc(O)cc2)cc(OC)c1O`, the MIC with Escherichia coli and with Staphylococcus aureus was 672 µM (≈ 256 µg/mL) throughout.

Turning to `COc1cc(Cc2cnc(N)nc2N)cc(OC)c1OCc1ccc([N+](=O)[O-])cc1`, the figures for the MIC in the assay on Escherichia coli and with Staphylococcus aureus were 39 µM (≈ 16 µg/mL) and 32.3 µM (≈ 13.3 µg/mL), respectively.

For `COc1cc(Cc2cnc(N)nc2N)cc(OC)c1OCc1ccc(Cl)cc1`, the MIC against Escherichia coli is 8.3 µM (≈ 3.33 µg/mL); against Staphylococcus aureus, 20 µM (≈ 8.02 µg/mL).

On to `COc1cc(Cc2cnc(N)nc2N)cc(OC)c1OCc1ccc(C)cc1`, for which the MIC against Escherichia coli was found to be 5 µM (≈ 1.9 µg/mL); against Staphylococcus aureus, 10 µM (≈ 3.8 µg/mL).

Take `COc1cc(Cc2cnc(N)nc2N)cc(OC)c1OCC(=O)c1ccc(C)cc1`: the MIC turned out to be 15.5 µM (≈ 6.33 µg/mL) with Escherichia coli and 37.7 µM (≈ 15.4 µg/mL) in the assay with Staphylococcus aureus.

Consider `COc1cc(Cc2cnc(N)nc2/N=C/c2cccc(O)c2)cc(OC)c1O`, for which the MIC was determined as 336 µM (≈ 128 µg/mL) with Escherichia coli and 672 µM (≈ 256 µg/mL) against Staphylococcus aureus.

As for `COc1cc(Cc2cnc(N)nc2N)cc(OC)c1OC` [TRIMETHOPRIM], the MIC in the assay with Escherichia coli was determined as 55.1 µM (≈ 16 µg/mL); with Staphylococcus aureus, 22.7 µM (≈ 6.59 µg/mL).

Take `COc1cc(Cc2cnc(N)nc2N)cc(OC)c1O` [4-HYDROXYTRIMETHOPRIM]: the MIC with Escherichia coli is 48.2 µM (≈ 13.3 µg/mL); against Staphylococcus aureus, 24.1 µM (≈ 6.66 µg/mL).

As for `COc1cc(Cc2cnc(N)nc2N)cc(OC)c1OCc1ccccc1`, the MIC with Escherichia coli and with Staphylococcus aureus was 18.2 µM (≈ 6.67 µg/mL) each time.

As for `COc1cc(Cc2cnc(N)nc2N)cc(OC)c1OCC(=O)c1ccc(Cl)cc1`, the MIC in the assay with Escherichia coli and against Staphylococcus aureus was 78.4 µM (≈ 33.6 µg/mL) in each case.

Turning to `COc1cc(Cc2cnc(N)nc2N)cc(OC)c1OCC(=O)c1ccccc1`, the MIC against Escherichia coli and with Staphylococcus aureus was 81.2 µM (≈ 32 µg/mL) each time.

For the compound `COc1cc(Cc2cnc(N)nc2N)cc(OC)c1OCC(=O)c1ccc([N+](=O)[O-])cc1`, the minimum inhibitory concentration (MIC) against Escherichia coli and in the assay with Staphylococcus aureus was 72.9 µM (≈ 32 µg/mL) throughout.

As to `COc1ccc(C(=O)COc2c(OC)cc(Cc3cnc(N)nc3N)cc2OC)cc1`, the MIC against Escherichia coli and against Staphylococcus aureus was 18.7 µM (≈ 7.94 µg/mL) in each case.
